Measurements taken from paper PMC11822212, “High-throughput screening identifies Aurora kinase B as a critical therapeutic target for Merkel cell carcinoma” (Nature Communications, 2025).

Experiments:
Assay type in all cases: cell-based, human
UISO cells (VN-MCC) = assay: qHTS cell viability (CellTiter-Glo, 72 h; primary and follow-up small molecule screen); conditions: UISO, 72h
WAGA cells (VP-MCC) = assay: as above; conditions: WAGA, 72h
MKL-2 cells (VP-MCC) = assay: as above; conditions: MKL2, 72h
[1] = system: VP-MCC cell lines (WAGA, MKL-1, MKL-2); assay: qHTS cell viability, VP-MCC cell lines as a group (mean AUC, VP.MCC.avg); conditions: re-tested in triplicate, follow-up screen
MCC13 cells (VN-MCC) = assay: qHTS cell viability (CellTiter-Glo, 72 h; primary and follow-up small molecule screen); conditions: MCC13, 72h
MCC26 cells (VN-MCC) = assay: as above; conditions: MCC26, 72h
MKL-1 cells (VP-MCC) = assay: as above; conditions: MKL1, 72h

CCS(=O)(=O)c1cccc(-c2cc(C(=O)NC3CCN(C)CC3)c(C)c3[nH]c4ncc(C)cc4c23)c1 [TAK-901, reference compound]
Percent viability (UISO cells (VN-MCC); Log (M) -5.33646): 2.3%
Percent viability (UISO cells (VN-MCC); Log (M) -5.81358): 2.9%
Percent viability (UISO cells (VN-MCC); Log (M) -6.2907): 16.4%
Percent viability (UISO cells (VN-MCC); Log (M) -6.76782): 39.6%
Percent viability (UISO cells (VN-MCC); Log (M) -7.24494): 65.2%
Percent viability (UISO cells (VN-MCC); Log (M) -7.72207): 80.6%
Percent viability (UISO cells (VN-MCC); Log (M) -8.19919): 77.5%
Percent viability (UISO cells (VN-MCC); Log (M) -8.67631): 101.9%
Percent viability (UISO cells (VN-MCC); Log (M) -9.15343): 102.4%
Percent viability (UISO cells (VN-MCC); Log (M) -9.63055): 103.6%
Percent viability (UISO cells (VN-MCC); Log (M) -10.1077): 103.5%
Percent viability (WAGA cells (VP-MCC); Log (M) -5.33646): 14.8%
Percent viability (WAGA cells (VP-MCC); Log (M) -5.81358): 27.2%
Percent viability (WAGA cells (VP-MCC); Log (M) -6.2907): 24.4%
Percent viability (WAGA cells (VP-MCC); Log (M) -6.76782): 45.2%
Percent viability (WAGA cells (VP-MCC); Log (M) -7.24494): 29.7%
Percent viability (WAGA cells (VP-MCC); Log (M) -7.72207): 26.6%
Percent viability (WAGA cells (VP-MCC); Log (M) -8.19919): 95.5%
Percent viability (WAGA cells (VP-MCC); Log (M) -8.67631): 121.9%
Percent viability (WAGA cells (VP-MCC); Log (M) -9.15343): 112.0%
Percent viability (WAGA cells (VP-MCC); Log (M) -9.63055): 114.1%
Percent viability (WAGA cells (VP-MCC); Log (M) -10.1077): 123.7%
Percent viability (MKL-2 cells (VP-MCC); Log (M) -5.33646): 3.8%
Percent viability (MKL-2 cells (VP-MCC); Log (M) -5.81358): 12.3%
Percent viability (MKL-2 cells (VP-MCC); Log (M) -6.2907): 44.7%
Percent viability (MKL-2 cells (VP-MCC); Log (M) -6.76782): 52.1%
Percent viability (MKL-2 cells (VP-MCC); Log (M) -7.24494): 44.0%
Percent viability (MKL-2 cells (VP-MCC); Log (M) -7.72207): 44.3%
Percent viability (MKL-2 cells (VP-MCC); Log (M) -8.19919): 48.4%
Percent viability (MKL-2 cells (VP-MCC); Log (M) -8.67631): 94.9%
Percent viability (MKL-2 cells (VP-MCC); Log (M) -9.15343): 110.4%
Percent viability (MKL-2 cells (VP-MCC); Log (M) -9.63055): 106.9%
Percent viability (MKL-2 cells (VP-MCC); Log (M) -10.1077): 102.9%
VP-MCC viability (in words) [1]: consistently and potently reduced VP-MCC viability
Percent viability (MCC13 cells (VN-MCC); Log (M) -5.33646): 26.1%
Percent viability (MCC13 cells (VN-MCC); Log (M) -5.81358): 79.3%
Percent viability (MCC13 cells (VN-MCC); Log (M) -6.2907): 86.5%
Percent viability (MCC13 cells (VN-MCC); Log (M) -6.76782): 99.0%
Percent viability (MCC13 cells (VN-MCC); Log (M) -7.24494): 119.7%
Percent viability (MCC13 cells (VN-MCC); Log (M) -7.72207): 113.0%
Percent viability (MCC13 cells (VN-MCC); Log (M) -8.19919): 118.4%
Percent viability (MCC13 cells (VN-MCC); Log (M) -8.67631): 116.9%
Percent viability (MCC13 cells (VN-MCC); Log (M) -9.15343): 104.5%
Percent viability (MCC13 cells (VN-MCC); Log (M) -9.63055): 119.9%
Percent viability (MCC13 cells (VN-MCC); Log (M) -10.1077): 98.3%
Percent viability (MCC26 cells (VN-MCC); Log (M) -5.33646): 25.9%
Percent viability (MCC26 cells (VN-MCC); Log (M) -5.81358): 20.6%
Percent viability (MCC26 cells (VN-MCC); Log (M) -6.2907): 33.0%
Percent viability (MCC26 cells (VN-MCC); Log (M) -6.76782): 64.5%
Percent viability (MCC26 cells (VN-MCC); Log (M) -7.24494): 80.5%
Percent viability (MCC26 cells (VN-MCC); Log (M) -7.72207): 93.5%
Percent viability (MCC26 cells (VN-MCC); Log (M) -8.19919): 87.4%
Percent viability (MCC26 cells (VN-MCC); Log (M) -8.67631): 96.2%
Percent viability (MCC26 cells (VN-MCC); Log (M) -9.15343): 90.5%
Percent viability (MCC26 cells (VN-MCC); Log (M) -9.63055): 91.5%
Percent viability (MCC26 cells (VN-MCC); Log (M) -10.1077): 63.2%
Percent viability (MKL-1 cells (VP-MCC); Log (M) -5.33646): 3.5%
Percent viability (MKL-1 cells (VP-MCC); Log (M) -5.81358): 27.5%
Percent viability (MKL-1 cells (VP-MCC); Log (M) -6.2907): 14.2%
Percent viability (MKL-1 cells (VP-MCC); Log (M) -6.76782): 38.9%
Percent viability (MKL-1 cells (VP-MCC); Log (M) -7.24494): 42.7%
Percent viability (MKL-1 cells (VP-MCC); Log (M) -7.72207): 48.2%
Percent viability (MKL-1 cells (VP-MCC); Log (M) -8.19919): 61.6%
Percent viability (MKL-1 cells (VP-MCC); Log (M) -8.67631): 102.5%
Percent viability (MKL-1 cells (VP-MCC); Log (M) -9.15343): 100.0%
Percent viability (MKL-1 cells (VP-MCC); Log (M) -9.63055): 106.9%
Percent viability (MKL-1 cells (VP-MCC); Log (M) -10.1077): 62.6%
